Data on 22 compounds can be found in ChEMBL document CHEMBL4000202, “Identification of a diverse synthetic abietane diterpenoid library for anticancer activity” (Bioorg Med Chem Lett, 2017).

Activity calls are given as the source filed them. The calls are words filed in the database; no cut-off is given here. A value given as a limit tells only on which side of the number the result lay.

One test has as its system SK-OV-3. Put plainly: Cytotoxic activity against human SKOV3 cells assessed as reduction in cell viability after 72 hrs by SRB assay. It is filed as functional, cell-based. The note with it: SK-OV-3, 72 h. On the technique in general: Sulforhodamine B stains cellular protein and so reports cell mass.
In the next test the test system is PC-3. Put plainly: Cytotoxic activity against human PC3 cells assessed as reduction in cell viability after 72 hrs by SRB assay. The test is classed as functional, cell-based. The note with it: PC-3, 72 h.
The subject of test [1] is A549. Put plainly: Cytotoxic activity against human A549 cells assessed as reduction in cell viability after 72 hrs by SRB assay. The test is classed as functional, cell-based. Particulars: A549, 72 h.
The subject of test [2] is A549. The test is described as follows: Induction of apoptosis in human A549 cells assessed as increase in cleaved PARP level after 36 hrs by Western blot method. The test is classed as functional, cell-based. On the technique in general: In western blotting, separated proteins are transferred to a membrane and probed.
In a further test the test system is SK-BR-3. Put plainly: Cytotoxic activity against human SKBR3 cells assessed as reduction in cell viability. The test is classed as functional, cell-based.
The test system of the next test is MCF7. Put plainly: Cytotoxic activity against human MCF7 cells assessed as reduction in cell viability. The test is classed as functional, cell-based.
In test [3] the test system is A549. The test is described as follows: Induction of apoptosis in human A549 cells assessed as genomic DNA fragmentation at 5 uM after 24 hrs by FITC/DAPI staining based TUNEL assay. It is filed as functional, cell-based.
Test [4] relates to A549. The test is described as follows: Induction of apoptosis in human A549 cells assessed as increase in cleaved caspase-3 level after 36 hrs by Western blot method. It is filed as functional, cell-based.
Test [5] deals with A549. Put plainly: Potency index, ratio of 5-FU IC50 to compound IC50 for human A549 cells. The test is classed as functional.
The next test deals with L02. The test is described as follows: Cytotoxic activity against human HL7702 cells. The test is classed as cell-based.
Another test deals with MDA-MB-231. Put plainly: Cytotoxic activity against human MDA-MB-231 cells assessed as reduction in cell viability. It is filed as functional, cell-based.
The subject of a further test is HCT-116. Put plainly: Cytotoxic activity against human HCT116 cells assessed as reduction in cell viability. The test is classed as functional, cell-based.
Test [6] concerns A549. Put plainly: Induction of apoptosis in human A549 cells assessed as ROS generation at 1 to 100 uM after 18 hrs. It is filed as functional, cell-based.
Test [7] deals with A549. The test is described as follows: Induction of apoptosis in human A549 cells assessed as early apoptotic cells at 5 uM after 36 hrs by Annexin V/propidium iodide based flow cytometric analysis (reference value: 0.5%). The test is classed as functional. Background: A flow cytometer gives signals particle by particle.
In test [8] the test system is A549. Put plainly: Induction of apoptosis in human A549 cells assessed as increase in cytochrome c level after 36 hrs by Western blot method. It is filed as functional, cell-based.
For test [9], the system named is A549. Put plainly: Induction of apoptosis in human A549 cells assessed as reduction in mitochondrial membrane potential at 5 uM after 24 hrs using JC-1 dye based spectrofluorometry. It is filed as functional, cell-based.
Test [10] concerns A549. Put plainly: Induction of apoptosis in human A549 cells assessed as decrease in Bcl-2 level after 36 hrs by Western blot method. It is filed as functional, cell-based.
For test [11], the system named is A549. The test is described as follows: Induction of apoptosis in human A549 cells assessed as late apoptotic cells at 5 uM after 36 hrs by Annexin V/propidium iodide based flow cytometric analysis (reference value: 2.3%). It is filed as functional.
For a further test, the system named is LNCaP. Put plainly: Cytotoxic activity against human LNCAP cells assessed as reduction in cell viability. The test is classed as functional, cell-based.
A further test relates to HFF. The test is described as follows: Cytotoxic activity against HFF cells assessed as reduction in cell viability. The test is classed as cell-based. Particulars: Homo sapiens.
The test system of test [12] is A549. The test is described as follows: Induction of apoptosis in human A549 cells assessed as necrotic cells at 5 uM after 36 hrs by Annexin V/propidium iodide based flow cytometric analysis (reference value: 0.2%). The test is classed as functional.
Test [13] relates to A549. Put plainly: Induction of apoptosis in human A549 cells assessed as increase in Bax level after 36 hrs by Western blot method. The test is classed as functional, cell-based.
The subject of test [14] is A549. The test is described as follows: Induction of apoptosis in human A549 cells assessed as decrease in PARP level after 36 hrs by Western blot method. The test is classed as functional, cell-based.
In test [15] the test system is A549. The test is described as follows: Effect on tubulin in human A549 cells at 1 to 100 uM after 18 hrs. The test is classed as cell-based.

Turning to `COc1c(C(C)C)ccc2c1CC=C1C3=C(CCC12C)C(=O)OC3` (single isomer, unassigned), the figures for the IC50 in the test with SK-OV-3, with PC-3 and in the test with A549 [1] were 24 µM, 48 µM and 74.9 µM, respectively.
For `COc1c(C(C)C)ccc2c1CC[C@@]1(O)C3=C(CC[C@]21C)C(=O)OC3` the same measures were greater than 100 µM, greater than 100 µM and greater than 100 µM.
For `C=C1C(=C(SC)SC)CC[C@]2(COCOCC)c3ccc(C(C)C)c(OC)c3CC[C@@H]12` the same measures were 26 µM, 19.4 µM and 99.8 µM.
The like results for `C=C1C(=O)CC[C@]2(C)c3ccc(C(C)C)c(OC)c3CC[C@@H]12` were, in that order, 7.49 µM, 7.28 µM and 9.31 µM.
On to `COC(=O)[C@]1(C)CCC[C@]2(C)c3cc([N+](=O)[O-])c(C(C)C)cc3CC[C@@H]12`, for which the results for the IC50 in the test with SK-OV-3, in the test on PC-3 and with A549 [1] were 47.8 µM, 81.9 µM and 89.4 µM, respectively.
The like results for `COc1c(C(C)C)ccc2c1CC[C@H]1[C@@H]3COC(=O)[C@@H]3CC[C@]21C` were, in that order, greater than 100 µM, greater than 100 µM and greater than 100 µM.
For `COC(=O)[C@]1(C)CCC[C@]2(C)c3ccc(C(C)C)c(OC)c3CC[C@@H]12` the same measures were 65.2 µM, 59.9 µM and greater than 100 µM.
The like results for `COC(=O)[C@]1(C)CCC[C@]2(C)c3ccc(C(C)C)cc3CC[C@@H]12` [METHYL DEHYDROABIETATE] were, in that order, 51.3 µM, 37.7 µM and 41.2 µM.
`C=C1[C@H](O[Si](C)(C)C(C)(C)C)CC[C@]2(C)c3ccccc3CC[C@@H]12`: the figures for the concentration for half-maximal inhibition (IC50) in the test with SK-OV-3, in the test on PC-3 and with A549 [1] were 91.8 µM, greater than 100 µM and 97.9 µM, respectively.
The like results for `COC(=O)[C@]1(C)CCC[C@]2(C)c3ccc(C(C)C)c([N+](=O)[O-])c3CC[C@@H]12` were, in that order, greater than 100 µM, greater than 100 µM and greater than 100 µM.
The like results for `COc1c(C(C)C)ccc2c1CC[C@H]1C3=C(CC[C@]21C)C(=O)OC3` were, in that order, 49.8 µM, 50.4 µM and 98.8 µM.
For `COC(=O)[C@]1(C)CCC[C@]2(C)c3ccc(C(C)C)c(N)c3CC[C@@H]12` the same measures were 37.8 µM, 21.1 µM and 35.7 µM.
Consider `CCOCO[C@]12CCC[C@]3(CO1)c1ccc(C(C)C)c(OC)c1C(=O)C[C@@H]23`, for which the Activity result in the test with A549 [2] is “Dose-dependent effect”; in the test on A549 [4] it was “Dose-dependent effect”; with A549 [7], 1.3%; in the test on A549 [8] it was “Dose-dependent effect”; with A549 [11] it was 15.8%; in the test on A549 [12], 1.3%. Moreover, the Activity entry in the test with A549 [13] is “Dose-dependent effect”. Moreover, the half-inhibitory concentration (IC50) (as a rule, the concentration that inhibits the measured activity by half) with SK-BR-3 was 1.1 to 4.5 µM; with MCF7 it was 1.1 to 4.5 µM; with SK-OV-3, 1.57 µM; with PC-3 it was 2.58 µM; in the test with L02, 16.1 to 22.4 µM; in the test with MDA-MB-231, 1.1 to 4.5 µM. Further, the IC50 in the test with HCT-116 was 1.1 to 4.5 µM; in the test with A549 [1] it was 1.32 µM; in the test on LNCaP, 1.1 to 4.5 µM; in the test on HFF it was 16.1 to 22.4 µM. Further, the result in the test with A549 [3], in the test on A549 [9], in the test with A549 [10] and with A549 [14] was Active. Also, the “Ratio IC50” value with A549 [5] was determined as 24. The outcome in the test on A549 [6] and in the test with A549 [15] was inactive.
Turning to `COc1c(C(C)C)ccc2c1CC[C@@]1(O)C3=C(C(=O)OC3)[C@@H](O)C[C@]21C`, the IC50 in the test with SK-OV-3 was 92.2 µM; in the test on PC-3, greater than 100 µM; with A549 [1] it was greater than 100 µM.
As to `C=C1[C@@H]2CC(=O)c3c(ccc(C(C)C)c3OC)[C@@]2(C)CC[C@@]1(O)CO`, the IC50 was found to be 59.6 µM with SK-OV-3, 27.2 µM in the test with PC-3 and 25 µM in the test with A549 [1].
The like results for `CC(C)c1ccc2c(c1O)C(=O)C[C@H]1C3=C(CC[C@]21C)C(=O)OC3` were, in that order, 42.5 µM, 58 µM and 77.3 µM.
The like results for `COc1c(C(C)C)ccc2c1CC[C@H]1[C@@H](O)CCC[C@]21C` were, in that order, greater than 100 µM, 98.2 µM and greater than 100 µM.
For `CC(C)[C@]12O[C@H]1[C@@H]1O[C@]13[C@]1(O[C@H]1C[C@H]1C4=C(CC[C@@]13C)C(=O)OC4)[C@@H]2O` [TRIPTOLIDE] the same measures were 0.0072 µM, 0.0183 µM and 0.0175 µM.
In the case of `C=CCc1ccc2c(c1O)C(=O)C[C@H]1C3=C(CC[C@]21C)C(=O)OC3`, the IC50 in the test with SK-OV-3 came out at 39.4 µM; in the test on PC-3, 68 µM; in the test with A549 [1] it was 95.8 µM.
For `C[C@]12CCC3=C(COC3=O)[C@@H]1CCc1ccccc12`, the half-maximal inhibitory concentration (IC50) in the test with SK-OV-3, with PC-3 and in the test with A549 [1] was greater than 100 µM throughout.
As to `C=C1C(CO)=CC[C@]2(C)c3ccc(C(C)C)c(OC)c3C(=O)C[C@@H]12`, the 50% inhibitory concentration (IC50) with SK-OV-3, in the test with PC-3 and in the test on A549 [1] was greater than 100 µM each time.
For `COc1c(C(C)C)ccc2c1CC[C@H]1C3=C(CC[C@]21CO)C(=O)OC3`, the IC50 in the test with SK-OV-3, in the test with PC-3 and in the test with A549 [1] was greater than 100 µM in each case.
